The values below come from patent US20090137577A1, “HETEROCYCLIC COMPOUNDS” (Pfizer Inc., priority 2007, published 2009).

The term EC50 denotes the concentration giving half of the maximal effect.

Each structure is given as a SMILES string.

The test deals with T1, mGluR2 receptor (metabotropic glutamate receptor 2) (Homo sapiens, UniProt Q14416).
T1 construct: expressed in transfected cells
T1 sequence (Q14416 19-872, species assumed): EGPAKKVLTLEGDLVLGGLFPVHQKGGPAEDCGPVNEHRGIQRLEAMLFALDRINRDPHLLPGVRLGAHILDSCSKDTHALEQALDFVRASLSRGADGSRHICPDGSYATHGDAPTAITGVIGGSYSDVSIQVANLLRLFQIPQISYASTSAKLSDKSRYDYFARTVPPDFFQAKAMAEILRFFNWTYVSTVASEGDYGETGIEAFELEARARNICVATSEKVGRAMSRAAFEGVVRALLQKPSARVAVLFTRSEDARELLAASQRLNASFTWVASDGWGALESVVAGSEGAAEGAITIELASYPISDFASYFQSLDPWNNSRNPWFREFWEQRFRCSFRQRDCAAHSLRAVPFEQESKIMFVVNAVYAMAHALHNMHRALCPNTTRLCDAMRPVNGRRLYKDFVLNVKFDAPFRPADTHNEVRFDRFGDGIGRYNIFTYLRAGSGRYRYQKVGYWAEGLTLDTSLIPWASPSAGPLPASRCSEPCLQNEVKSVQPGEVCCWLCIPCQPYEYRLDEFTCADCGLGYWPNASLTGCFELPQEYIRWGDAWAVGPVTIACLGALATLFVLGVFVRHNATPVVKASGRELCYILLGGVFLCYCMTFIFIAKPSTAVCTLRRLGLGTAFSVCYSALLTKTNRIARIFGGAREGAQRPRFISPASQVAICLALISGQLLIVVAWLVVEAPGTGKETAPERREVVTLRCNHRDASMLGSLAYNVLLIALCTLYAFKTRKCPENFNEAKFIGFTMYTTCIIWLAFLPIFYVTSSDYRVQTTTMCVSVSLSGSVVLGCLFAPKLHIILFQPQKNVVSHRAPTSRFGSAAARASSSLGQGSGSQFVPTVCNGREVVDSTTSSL
The test can be described thus: mGluR2 potentiator screen (FLIPR, EC10-EC20 glutamate challenge).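 Note: HEK cells stably expressing human mGluR2 with GL15 G protein, Fluo-4 calcium fluorescence read on FLIPR, compounds added before an EC10-EC20 glutamate challenge to detect potentiation.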 The settings on record: geometric mean; read-out: mGluR 2 EC50 (geometric mean). The format is cell-based.
In the case of `COc1cc(COc2ccc(CN3CC(C)OC3=O)cc2)ccc1C` (centres unmarked) [Example 146], the 50% effective concentration (EC50) was found to be 1110 nM. Then `COc1ccc(-c2ccc(CN3C[C@@H](C)OC3=O)cc2F)cn1` [Example 295], with 804 nM; and `CC[C@](COc1ccc(CN2CC(C)OC2=O)cc1)(c1ccccc1)N(C)C` (some centres unmarked) [Example 145], with 1340 nM; and `Cc1ccccc1-c1ccc(CN2C[C@@H](C)OC2=O)cc1` [Example 180], with 52 nM. As for `C[C@@H]1CN(Cc2ccc(-c3ccc(Cl)c(Cl)c3)nc2)C(=O)O1` [Example 261], the concentration for a half-maximal effect (EC50) came to 116 nM. Then `C[C@@H]1CN(Cc2ccc(OCCC3CCCCC3)c(F)c2)C(=O)O1` [Example 241, (5R)-3-[4-(2-cyclohexylethoxy)-3-fluorobenzyl]-5-methyl-1,3-oxazolidin-2-one], with 418 nM; and `C[C@@H]1CN(Cc2ccc(-c3cc(Cl)cc(Cl)c3)cc2)C(=O)O1` [Example 187, (5R)-3-[(3′,5′-dichlorobiphenyl-4-yl)methyl]-5-methyl-1,3-oxazolidin-2-one], with 113 nM. In the case of `COc1ccccc1COc1ccc(CN2CC(C)OC2=O)cc1` (centres unmarked) [Example 118] it was 89.4 nM; in that of `CC(C)Oc1ccc(-c2ccc(CN3C[C@H](C)OC3=O)cc2)cc1` [Example 58, (5S)-3-[(4′-isopropoxybiphenyl-4-yl)methyl]-5-methyl-1,3-oxazolidin-2-one], 105 nM. Then `C[C@@H]1CN(Cc2ccc(-c3ccc(Cl)cc3F)nc2)C(=O)O1` [Example 210, (5R)-3-{[6-(4-Chloro-2-fluorophenyl)pyridin-3-yl]methyl}-5-methyl-1,3-oxazolidin-2-one], with 424 nM; and `Cc1ccc(F)cc1-c1ccc(CN2C[C@@H](C)OC2=O)cc1` [Example 248], with 53.7 nM. As to `CCN(C)CC1CN(Cc2ccc(-c3ccc(F)cc3F)cc2)C(=O)O1` (centres unmarked) [Example 304, 3-[(2′,4′-difluorobiphenyl-4-yl)methyl]-5-{[ethyl(methyl)amino]methyl}-1,3-oxazolidin-2-one], the half-maximal effective concentration (EC50) amounted to 581 nM.

`COc1ccc(-c2ccc(CN3C[C@@H](C)OC3=O)cc2)cc1F` [Example 170]: the concentration for a half-maximal effect (EC50) was 34.2 nM. Then `O=C1OC(c2ccccc2)CN1Cc1ccc(OCc2ccccn2)cc1` (centres unmarked) [Example 5], with 1280 nM. For `O=C1OC(c2ccccc2)CN1Cc1ccc(OCc2ccccc2)cc1` (centres unmarked) [Example 8], the EC50 came to 153 nM.

On to `O=C1OC(c2cccnc2)CN1Cc1ccc(-c2ccc(F)cc2F)cc1` (centres unmarked) [Example 302, 3-[(2′,4′-Difluorobiphenyl-4-yl)methyl]-5-pyridin-3-yl-1,3-oxazolidin-2-one], for which the EC50 came to 78.9 nM. Then `CC1CN(Cc2ccc(OCCCOc3ccc(F)cc3)cc2)C(=O)O1` (centres unmarked) [Example 152], with 46 nM. Then `C[C@@H]1CN(Cc2ccc(-c3ccc(N4CCCC4)nc3)cc2)C(=O)O1` [Example 158], with 151 nM; and `COc1ccc(F)c(F)c1-c1ccc(CN2C[C@@H](C)OC2=O)cn1` [Example 263], with 1370 nM; and `CC1CN(Cc2ccc(OCc3ccc(F)cc3)cc2)C(=O)O1` (centres unmarked) [Example 110], with 243 nM. Then `CC1CN(Cc2ccc(OC(C)Cc3ccccc3)cc2)C(=O)O1` (centres unmarked) [Example 122], with 40.7 nM; and `Cc1c(COc2ccc(CN3CC(C)OC3=O)cc2)cnn1-c1ccccc1` (centres unmarked) [Example 128], with 595 nM. Consider `C[C@@H]1CN(Cc2ccc(-c3cccc(F)c3F)c(F)c2)C(=O)O1` [Example 289], for which the EC50 was found to be 93.7 nM. In the case of `CC1CN(Cc2ccc(OCc3ccc(C#N)cc3)cc2)C(=O)O1` (centres unmarked) [Example 124] it was 827 nM.

For `C[C@@H]1CN(Cc2ccc(-c3ccc(C(F)(F)F)cc3F)cc2F)C(=O)O1` [Example 252], the concentration for a half-maximal effect (EC50) was 29.3 nM.

`Cc1cc(F)ccc1-c1ccc(CN2C[C@@H](C)OC2=O)cc1` [Example 159]: the 50% effective concentration (EC50) worked out at 13.9 nM.

`CC(Oc1ccc(CN2CCN(CC3CCCC3)CC2=O)cc1)C1CCCCC1` (centres unmarked) [Example 202]: the half-maximal effective concentration (EC50) turned out to be 291 nM.

Regarding `CC[C@H](Oc1ccc(CN2CC(C)OC2=O)cc1)c1ccccc1` (some centres unmarked) [Example 148], the concentration giving a half-maximal response (EC50) is below 13.4 nM. Then `CC1CN(Cc2ccc(OCCc3ccccc3)cc2)C(=O)O1` (centres unmarked) [Example 102], with 282 nM; and `CC(C)COc1ccc(CN2CC(c3ccccc3)OC2=O)cc1` (centres unmarked) [Example 6], with 151 nM; and `CCOC(=O)c1ccccc1-c1ccc(CN2C[C@@H](C)OC2=O)cc1` [Example 197], with 1830 nM.

Take `CC1(C)COC(=O)N(Cc2ccc(OC3CCCCC3)cc2)C1` [Example 43]: the half-maximal effective concentration (EC50) is 336 nM.

On to `CC(C)Oc1ccc(-c2ccc(CN3C[C@@H](C)OC3=O)cc2)cc1` [Example 57, (5R)-3-[(4′-isopropoxybiphenyl-4-yl)methyl]-5-methyl-1,3-oxazolidin-2-one], for which the half-maximal effective concentration (EC50) is below 40.8 nM. In the case of `Cc1oc(-c2ccccc2)nc1CCOc1ccc(CN2CC(C)OC2=O)cc1` (centres unmarked) [Example 107] it was 273 nM. Then `CC(Oc1ccc(CN2CCN(CCC(F)(F)F)CC2=O)cc1)C1CCCCC1` (centres unmarked) [Example 222], with 325 nM; and `C[C@@H]1CN(Cc2ccc(-c3ccc(F)cc3Cl)cc2)C(=O)O1` [Example 274], with 31.3 nM; and `C[C@H]1[C@@H](c2ccccc2)OC(=O)N1Cc1ccc(OCC2CCCCC2)cc1` [Example 27], with 1140 nM. For `CCCOc1ccc(CN2C(=O)O[C@H](c3ccccc3)[C@@H]2C)cc1` [Example 23], the concentration giving a half-maximal response (EC50) came out at 887 nM. Regarding `Cc1cc(CN2C[C@@H](C)OC2=O)cc(C)c1OCc1ccccc1` [Example 184], the concentration giving a half-maximal response (EC50) is 964 nM.

`C[C@@H]1CN(Cc2ccc(-c3cc4ccccc4o3)cc2)C(=O)O1` [Example 157]: the EC50 is below 32.5 nM.

On to `CC1CN(Cc2ccc(OCc3ccc(Cl)cc3F)cc2)C(=O)O1` (centres unmarked) [Example 88], for which the EC50 amounted to 66.6 nM. On to `CC(Oc1ccc(CN2CC(C)(C)COC2=O)cc1)C1CCCCC1` (centres unmarked) [Example 47], for which the half-maximal effective concentration (EC50) turned out to be 247 nM. Then `CCCOc1ccc(CN2CC(c3ccccc3)OC2=O)cc1` (centres unmarked) [Example 3], with 361 nM. As for `Cc1cc(CN2C[C@@H](C)OC2=O)ccc1Oc1ncc(Cl)cc1Cl` [Example 296, (5R)-3-{4-[(3,5-Dichloropyridin-2-yl)oxy]-3-methylbenzyl}-5-methyl-1,3-oxazolidin-2-one], the EC50 turned out to be 45.5 nM.

Regarding `CC1CN(Cc2ccc(OCc3ccc(F)c(F)c3)cc2)C(=O)O1` (centres unmarked) [Example 137], the EC50 was 310 nM.

Regarding `O=C1OC(c2ccccc2)CN1Cc1ccc(OC2CCCCC2)cc1` (centres unmarked) [Example 40], the half-maximal effective concentration (EC50) was 155 nM. In the case of `CC1CN(Cc2ccc(OCc3ccc(F)cc3Cl)cc2)C(=O)O1` (centres unmarked) [Example 115], the concentration for a half-maximal effect (EC50) came to 71.8 nM. Consider `CC(C)CCOc1ccc(CN2CC(C)OC2=O)cc1` (centres unmarked) [Example 143], for which the concentration for a half-maximal effect (EC50) came to 75.5 nM. Then `C[C@@H]1CN(Cc2ccc(-c3ccc4c(c3)CCO4)nc2)C(=O)O1` [Example 264], with 561 nM. Then `C[C@@H]1CN(Cc2ccc(OCC3CCCCC3)c(F)c2)C(=O)O1` [Example 227, (5R)-3-[4-(cyclohexylmethoxy)-3-fluorobenzyl]-5-methyl-1,3-oxazolidin-2-one], with 196 nM; and `C[C@@H]1CN(Cc2ccc(-c3ccc(C(F)(F)F)cc3F)nc2)C(=O)O1` [Example 258], with 205 nM; and `CC1(C)COC(=O)N(Cc2ccc(OCc3ccccc3)cc2)C1` [Example 21], with 819 nM. Then `CCC1CN(Cc2ccc(-c3ccc(F)cc3F)cc2)C(=O)O1` (centres unmarked) [Example 315], with 41.4 nM.

`CC1CN(Cc2ccc(O[C@H](C)c3ccccc3)cc2)C(=O)O1` (some centres unmarked) [Example 139]: the concentration giving a half-maximal response (EC50) was 79.7 nM. Consider `CC(Oc1ccc(CN2CCN(CC(C)(C)C)CC2=O)cc1)C1CCCCC1` (centres unmarked) [Example 223], for which the EC50 was 584 nM. Then `COc1ccc(F)c(F)c1-c1ccc(CN2C[C@@H](C)OC2=O)cc1` [Example 243], with below 25.3 nM; and `CC1CN(Cc2ccc(OCCCc3ccccc3)cc2)C(=O)O1` (centres unmarked) [Example 104], with 37.9 nM; and `O=C1OC[C@@H]2CCCC[C@@H]2N1Cc1ccc(OCC2CCC2)cc1` [Example 1], with 761 nM. Turning to `Cc1ccc(F)cc1COc1ccc(CN2C[C@@H](C)OC2=O)cc1` [Example 205], the EC50 was 68 nM. In the case of `C[C@@H]1CN(Cc2ccc(O[C@@H](C)c3ccccc3)cc2)C(=O)O1` [Example 69], the EC50 turned out to be 173 nM. In the case of `C[C@@H]1CN(Cc2ccc(-c3ccc(Cl)cc3Cl)cc2)C(=O)O1` [Example 273] it was below 40.1 nM; in that of `CC(C1CCC1)N1CCN(Cc2ccc(-c3ccc(F)cc3F)cc2)C(=O)C1` (centres unmarked) [Example 306, 4-(1-Cyclobutylethyl)-1-[(2′,4′-difluorobiphenyl-4-yl)methyl]piperazin-2-one], 327 nM. In the case of `C[C@@H]1CN(Cc2ccc3c(c2)Cc2ccccc2-3)C(=O)O1` [Example 185] it was 625 nM.

As for `C[C@@H]1CN(Cc2ccc(OCC3CCCCC3)c(Cl)c2)C(=O)O1` [Example 286, (5R)-3-[3-chloro-4-(cyclohexylmethoxy)benzyl]-5-methyl-1,3-oxazolidin-2-one], the 50% effective concentration (EC50) was found to be 32.5 nM.

Consider `CC(C)COc1ccc(CN2C(=O)OC[C@H]3CCCC[C@H]32)cc1` [Example 2], for which the EC50 is 637 nM. Then `C[C@H]1[C@@H](c2ccccc2)OC(=O)N1Cc1ccc(OCc2ccccn2)cc1` [Example 25], with 1760 nM. Then `Cc1cc(F)ccc1-c1ccc(CN2C[C@@H](C)OC2=O)cc1F` [Example 290], with 130 nM. On to `C[C@@H]1CN(Cc2ccc(OCc3ccc(C(F)(F)F)cc3F)c(F)c2)C(=O)O1` [Example 228, (5R)-3-(3-fluoro-4-{[2-fluoro-4-(trifluoromethyl)benzyl]oxy}benzyl)-5-methyl-1,3-oxazolidin-2-one], for which the EC50 was found to be 870 nM. Then `C[C@@H]1CN(Cc2ccc(-c3ccc(C(F)(F)F)cc3)nc2)C(=O)O1` [Example 265], with 1100 nM; and `CC(Oc1ccc(CN2CCN(C(C)C3CCC3)CC2=O)cc1)C1CCCCC1` (centres unmarked) [Example 221], with 794 nM; and `C[C@@H]1CN(Cc2ccc(-c3cnc4ccccc4c3)c(F)c2)C(=O)O1` [Example 294], with 327 nM.
